Experimental data from paper PMC12090182, “Repurposing of the RIPK1-Selective Benzo[1,4]oxazepin-4-one Scaffold for the Development of a Type III LIMK1/2 Inhibitor” (ACS Chemical Biology, 2025).

Test system: MRC-9 cells
Test: Multiplex high-content viability assessment
Format: cell-based
Settings: for Cell count normalized to cells treated with DMSO control / Cell count per well / Population Fragmented Nuclei (%) / Population Healthy Nuclei (%) / Population Pyknosed Nuclei (%) / Population apoptotic cell (%) / Population cell that influence microtubule strucutre (%) / Population with increased mitochondrial mass (%) / Population with membrane disruption (%): human fibroblast
Description: To assess the influence on cell health, a high-content screening in living cells called the multiplex high-content assay, as described previously by Tjaden et al., was performed.[38] In brief, HEK293T (ATCC CRL-1573) and U2OS (ATCCHTB-96) were cultured in DMEM plus L-glutamine (high glucose) supplemented by 10% FBS (Gibco) and penicillin/streptomycin (Gibco). MRC-9 fibroblasts ([…]) were cultured in EMEM plus L-glutamine supplemented by 10% FBS (Gibco) and penicillin/streptomycin (Gibco). Cells were seeded at a density of 1250 cells per well in a 384-well plate in a culture medium (cell culture microplate, PS, f-bottom, μClear, 781091, Greiner), with a volume of 50 μL per well. All outer wells were filled with 100 μL of PBS buffer (Gibco). […] The cell shape and fluorescence were measured before treatment and 12, 24, and 48 h after compound treatment using the CQ1 high-content confocal microscope (Yokogawa, Musashino, Japan). […] The compounds were tested at 1 and 10 μM, respectively. Acquired images of the cells were processed using Yokogawa CellPathfinder software (v3.04.02.02). […] Results were normalized to cells exposed to 0.1% DMSO. All compounds were tested in biological duplicates, and SEM (standard error of mean) was calculated of biological duplicates.

SMILES: CN1C(=O)[C@@H](N2CCc3c(nn(Cc4ccccc4)c3C(N)=O)C2=O)COc2cc(Cl)ccc21 [Compound 10, (S)-2-benzyl-6-(8-chloro-5-methyl-4-oxo-2,3,4,5-tetrahydrobenzo[b][1,4]oxazepin-3-yl)-7-oxo-4,5,6,7-tetrahydro-2H-pyrazolo[3,4-c]pyridine-3-carboxamide]
- Cell count normalized to cells treated with DMSO control (1 µM, 0 h, replicate 1): 0.9542
- Cell count per well (1 µM, 0 h, replicate 1): 143
- Population Fragmented Nuclei (%) (1 µM, 0 h, replicate 1): 19.86%
- Population Healthy Nuclei (%) (1 µM, 0 h, replicate 1): 56.74%
- Population Pyknosed Nuclei (%) (1 µM, 0 h, replicate 1): 23.40%
- Population apoptotic cell (%) (1 µM, 0 h, replicate 1): 42.42%
- Population cell that influence microtubule strucutre (%) (1 µM, 0 h, replicate 1): 27.50%
- Population with increased mitochondrial mass (%) (1 µM, 0 h, replicate 1): 11.25%
- Population with membrane disruption (%) (1 µM, 0 h, replicate 1): 1.25%
- Cell count normalized to cells treated with DMSO control (1 µM, 0 h, replicate 2): 1.071
- Cell count per well (1 µM, 0 h, replicate 2): 191
- Population Fragmented Nuclei (%) (1 µM, 0 h, replicate 2): 17.68%
- Population Healthy Nuclei (%) (1 µM, 0 h, replicate 2): 56.35%
- Population Pyknosed Nuclei (%) (1 µM, 0 h, replicate 2): 25.97%
- Population apoptotic cell (%) (1 µM, 0 h, replicate 2): 19.15%
- Population cell that influence microtubule strucutre (%) (1 µM, 0 h, replicate 2): 32.35%
- Population with increased mitochondrial mass (%) (1 µM, 0 h, replicate 2): 4.90%
- Population with membrane disruption (%) (1 µM, 0 h, replicate 2): 4.90%
- Cell count normalized to cells treated with DMSO control (1 µM, 12 h, replicate 1): 0.9165
- Cell count per well (1 µM, 12 h, replicate 1): 138
- Population Fragmented Nuclei (%) (1 µM, 12 h, replicate 1): 13.43%
- Population Healthy Nuclei (%) (1 µM, 12 h, replicate 1): 56.72%
- Population Pyknosed Nuclei (%) (1 µM, 12 h, replicate 1): 29.85%
- Population apoptotic cell (%) (1 µM, 12 h, replicate 1): 55.00%
- Population cell that influence microtubule strucutre (%) (1 µM, 12 h, replicate 1): 31.58%
- Population with increased mitochondrial mass (%) (1 µM, 12 h, replicate 1): 3.95%
- Population with membrane disruption (%) (1 µM, 12 h, replicate 1): 0.00%
- Cell count normalized to cells treated with DMSO control (1 µM, 12 h, replicate 2): 1.033
- Cell count per well (1 µM, 12 h, replicate 2): 172
- Population Fragmented Nuclei (%) (1 µM, 12 h, replicate 2): 18.52%
- Population Healthy Nuclei (%) (1 µM, 12 h, replicate 2): 51.23%
- Population Pyknosed Nuclei (%) (1 µM, 12 h, replicate 2): 30.25%
- Population apoptotic cell (%) (1 µM, 12 h, replicate 2): 36.73%
- Population cell that influence microtubule strucutre (%) (1 µM, 12 h, replicate 2): 48.19%
- Population with increased mitochondrial mass (%) (1 µM, 12 h, replicate 2): 3.61%
- Population with membrane disruption (%) (1 µM, 12 h, replicate 2): 9.64%
- Cell count normalized to cells treated with DMSO control (1 µM, 24 h, replicate 1): 0.9086
- Cell count per well (1 µM, 24 h, replicate 1): 137
- Population Fragmented Nuclei (%) (1 µM, 24 h, replicate 1): 12.03%
- Population Healthy Nuclei (%) (1 µM, 24 h, replicate 1): 64.66%
- Population Pyknosed Nuclei (%) (1 µM, 24 h, replicate 1): 23.31%
- Population apoptotic cell (%) (1 µM, 24 h, replicate 1): 64.52%
- Population cell that influence microtubule strucutre (%) (1 µM, 24 h, replicate 1): 32.56%
- Population with increased mitochondrial mass (%) (1 µM, 24 h, replicate 1): 8.14%
- Population with membrane disruption (%) (1 µM, 24 h, replicate 1): 2.33%
- Cell count normalized to cells treated with DMSO control (1 µM, 24 h, replicate 2): 1.049
- Cell count per well (1 µM, 24 h, replicate 2): 173
- Population Fragmented Nuclei (%) (1 µM, 24 h, replicate 2): 26.25%
- Population Healthy Nuclei (%) (1 µM, 24 h, replicate 2): 51.25%
- Population Pyknosed Nuclei (%) (1 µM, 24 h, replicate 2): 22.50%
- Population apoptotic cell (%) (1 µM, 24 h, replicate 2): 47.22%
- Population cell that influence microtubule strucutre (%) (1 µM, 24 h, replicate 2): 46.34%
- Population with increased mitochondrial mass (%) (1 µM, 24 h, replicate 2): 3.66%
- Population with membrane disruption (%) (1 µM, 24 h, replicate 2): 8.54%
- Cell count normalized to cells treated with DMSO control (1 µM, 48 h, replicate 1): 0.9623
- Cell count per well (1 µM, 48 h, replicate 1): 146
- Population Fragmented Nuclei (%) (1 µM, 48 h, replicate 1): 16.91%
- Population Healthy Nuclei (%) (1 µM, 48 h, replicate 1): 63.97%
- Population Pyknosed Nuclei (%) (1 µM, 48 h, replicate 1): 19.12%
- Population apoptotic cell (%) (1 µM, 48 h, replicate 1): 76.92%
- Population cell that influence microtubule strucutre (%) (1 µM, 48 h, replicate 1): 25.29%
- Population with increased mitochondrial mass (%) (1 µM, 48 h, replicate 1): 4.60%
- Population with membrane disruption (%) (1 µM, 48 h, replicate 1): 1.15%
- Cell count normalized to cells treated with DMSO control (1 µM, 48 h, replicate 2): 1.056
- Cell count per well (1 µM, 48 h, replicate 2): 172
- Population Fragmented Nuclei (%) (1 µM, 48 h, replicate 2): 23.95%
- Population Healthy Nuclei (%) (1 µM, 48 h, replicate 2): 59.28%
- Population Pyknosed Nuclei (%) (1 µM, 48 h, replicate 2): 16.77%
- Population apoptotic cell (%) (1 µM, 48 h, replicate 2): 75.00%
- Population cell that influence microtubule strucutre (%) (1 µM, 48 h, replicate 2): 54.55%
- Population with increased mitochondrial mass (%) (1 µM, 48 h, replicate 2): 5.05%
- Population with membrane disruption (%) (1 µM, 48 h, replicate 2): 7.07%
- cytotoxicity (1 μM, MRC-9): no cytotoxicity
- Cell count normalized to cells treated with DMSO control (10 µM, 0 h, replicate 1): 1.081
- Cell count per well (10 µM, 0 h, replicate 1): 162
- Population Fragmented Nuclei (%) (10 µM, 0 h, replicate 1): 15.72%
- Population Healthy Nuclei (%) (10 µM, 0 h, replicate 1): 65.41%
- Population Pyknosed Nuclei (%) (10 µM, 0 h, replicate 1): 18.87%
- Population apoptotic cell (%) (10 µM, 0 h, replicate 1): 33.33%
- Population cell that influence microtubule strucutre (%) (10 µM, 0 h, replicate 1): 22.12%
- Population with increased mitochondrial mass (%) (10 µM, 0 h, replicate 1): 9.62%
- Population with membrane disruption (%) (10 µM, 0 h, replicate 1): 0.96%
- Cell count normalized to cells treated with DMSO control (10 µM, 0 h, replicate 2): 0.8971
- Cell count per well (10 µM, 0 h, replicate 2): 160
- Population Fragmented Nuclei (%) (10 µM, 0 h, replicate 2): 22.07%
- Population Healthy Nuclei (%) (10 µM, 0 h, replicate 2): 49.66%
- Population Pyknosed Nuclei (%) (10 µM, 0 h, replicate 2): 28.28%
- Population apoptotic cell (%) (10 µM, 0 h, replicate 2): 34.15%
- Population cell that influence microtubule strucutre (%) (10 µM, 0 h, replicate 2): 44.44%
- Population with increased mitochondrial mass (%) (10 µM, 0 h, replicate 2): 9.72%
- Population with membrane disruption (%) (10 µM, 0 h, replicate 2): 5.56%
- Cell count normalized to cells treated with DMSO control (10 µM, 12 h, replicate 1): 1.162
- Cell count per well (10 µM, 12 h, replicate 1): 175
- Population Fragmented Nuclei (%) (10 µM, 12 h, replicate 1): 18.93%
- Population Healthy Nuclei (%) (10 µM, 12 h, replicate 1): 60.36%
- Population Pyknosed Nuclei (%) (10 µM, 12 h, replicate 1): 20.71%
- Population apoptotic cell (%) (10 µM, 12 h, replicate 1): 48.57%
- Population cell that influence microtubule strucutre (%) (10 µM, 12 h, replicate 1): 53.92%
- Population with increased mitochondrial mass (%) (10 µM, 12 h, replicate 1): 8.82%
- Population with membrane disruption (%) (10 µM, 12 h, replicate 1): 1.96%
- Cell count normalized to cells treated with DMSO control (10 µM, 12 h, replicate 2): 0.8225
- Cell count per well (10 µM, 12 h, replicate 2): 137
- Population Fragmented Nuclei (%) (10 µM, 12 h, replicate 2): 27.87%
- Population Healthy Nuclei (%) (10 µM, 12 h, replicate 2): 49.18%
- Population Pyknosed Nuclei (%) (10 µM, 12 h, replicate 2): 22.95%
- Population apoptotic cell (%) (10 µM, 12 h, replicate 2): 25.00%
- Population cell that influence microtubule strucutre (%) (10 µM, 12 h, replicate 2): 60.00%
- Population with increased mitochondrial mass (%) (10 µM, 12 h, replicate 2): 5.00%
- Population with membrane disruption (%) (10 µM, 12 h, replicate 2): 3.33%
- Cell count normalized to cells treated with DMSO control (10 µM, 24 h, replicate 1): 1.1009
- Cell count per well (10 µM, 24 h, replicate 1): 166
- Population Fragmented Nuclei (%) (10 µM, 24 h, replicate 1): 25.32%
- Population Healthy Nuclei (%) (10 µM, 24 h, replicate 1): 55.06%
- Population Pyknosed Nuclei (%) (10 µM, 24 h, replicate 1): 19.62%
- Population apoptotic cell (%) (10 µM, 24 h, replicate 1): 54.84%
- Population cell that influence microtubule strucutre (%) (10 µM, 24 h, replicate 1): 45.98%
- Population with increased mitochondrial mass (%) (10 µM, 24 h, replicate 1): 10.34%
- Population with membrane disruption (%) (10 µM, 24 h, replicate 1): 1.15%
- Cell count normalized to cells treated with DMSO control (10 µM, 24 h, replicate 2): 0.8977
- Cell count per well (10 µM, 24 h, replicate 2): 148
- Population Fragmented Nuclei (%) (10 µM, 24 h, replicate 2): 34.56%
- Population Healthy Nuclei (%) (10 µM, 24 h, replicate 2): 47.06%
- Population Pyknosed Nuclei (%) (10 µM, 24 h, replicate 2): 18.38%
- Population apoptotic cell (%) (10 µM, 24 h, replicate 2): 40.00%
- Population cell that influence microtubule strucutre (%) (10 µM, 24 h, replicate 2): 65.63%
- Population with increased mitochondrial mass (%) (10 µM, 24 h, replicate 2): 9.38%
- Population with membrane disruption (%) (10 µM, 24 h, replicate 2): 1.56%
- Cell count normalized to cells treated with DMSO control (10 µM, 48 h, replicate 1): 1.1403
- Cell count per well (10 µM, 48 h, replicate 1): 173
- Population Fragmented Nuclei (%) (10 µM, 48 h, replicate 1): 22.56%
- Population Healthy Nuclei (%) (10 µM, 48 h, replicate 1): 61.59%
- Population Pyknosed Nuclei (%) (10 µM, 48 h, replicate 1): 15.85%
- Population apoptotic cell (%) (10 µM, 48 h, replicate 1): 84.62%
- Population cell that influence microtubule strucutre (%) (10 µM, 48 h, replicate 1): 40.59%
- Population with increased mitochondrial mass (%) (10 µM, 48 h, replicate 1): 5.94%
- Population with membrane disruption (%) (10 µM, 48 h, replicate 1): 0.00%
- Cell count normalized to cells treated with DMSO control (10 µM, 48 h, replicate 2): 0.9149
- Cell count per well (10 µM, 48 h, replicate 2): 149
- Population Fragmented Nuclei (%) (10 µM, 48 h, replicate 2): 33.82%
- Population Healthy Nuclei (%) (10 µM, 48 h, replicate 2): 56.62%
- Population Pyknosed Nuclei (%) (10 µM, 48 h, replicate 2): 9.56%
- Population apoptotic cell (%) (10 µM, 48 h, replicate 2): 46.15%
- Population cell that influence microtubule strucutre (%) (10 µM, 48 h, replicate 2): 61.04%
- Population with increased mitochondrial mass (%) (10 µM, 48 h, replicate 2): 6.49%
- Population with membrane disruption (%) (10 µM, 48 h, replicate 2): 2.60%
- impact on tubulin, mitochondrial mass, and cellular permeability in healthy cells (MRC-9, 1 μM (Figure 6)): comparable to that of the 0.1% DMSO control
